PMC8745345, “Hydroxy Pentacyclic Triterpene Acid, Kaempferol, Inhibits the Human 5-Hydroxytryptamine Type 3A Receptor Activity” (International Journal of Molecular Sciences, 2022)

Biological target: T1, human 5-HT3A receptor I144A mutant (Homo sapiens, UniProt P46098)
T1 sequence (P46098 24-478): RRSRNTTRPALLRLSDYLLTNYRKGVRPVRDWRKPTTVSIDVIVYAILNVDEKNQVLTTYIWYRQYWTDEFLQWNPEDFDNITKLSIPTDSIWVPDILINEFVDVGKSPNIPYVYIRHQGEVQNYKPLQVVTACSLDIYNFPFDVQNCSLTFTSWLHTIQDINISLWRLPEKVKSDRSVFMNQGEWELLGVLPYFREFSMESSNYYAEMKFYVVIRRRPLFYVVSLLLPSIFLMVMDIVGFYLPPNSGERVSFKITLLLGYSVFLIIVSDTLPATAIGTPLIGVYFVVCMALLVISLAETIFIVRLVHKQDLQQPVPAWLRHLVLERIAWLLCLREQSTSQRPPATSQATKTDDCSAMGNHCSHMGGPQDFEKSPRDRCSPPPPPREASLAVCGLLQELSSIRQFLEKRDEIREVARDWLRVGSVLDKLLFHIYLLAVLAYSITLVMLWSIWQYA
Assay: Two-electrode voltage clamp, I5-HT inhibition, I144A mutant
Format: cell-based
Settings: −80 mV
Method: Human 5-HT3A receptor cDNA was linearized using restriction enzyme XhoI. In vitro transcription was performed using an mMESSAGE mMACHINE T7 Transcription Kit (Thermo Fisher Scientific, Waltham, MA, USA). The final mRNA product was dissolved in 1X Diethyl Pyrocarbonate (RNase-free water) at a final concentration of 1 μg/μL and kept in a deep-freezer at −80 °C until used.
Xenopus oocytes were used in this study as cells for expression of human 5-HT3A receptor. All female frogs used in this experiment were obtained from the Korean Xenopus Resource Center for Research (KXRCR000001). Xenopus management followed the guideline of Chonnam National University institution guidelines (CNU IACUC-YB-2016-07, July 2016). Xenopus oocytes were extracted during ice incubation state and isolated as single oocytes using collagenase II (2 mg/mL) in OR2 buffer (82.5 mM NaCl, 2 mM KCl, 1 mM MgCl2, 5 mM HEPES, pH 7.4). […]
The voltage relationship experiment for confirming the relationship between induce-inward current and voltage, the voltage was varied from −80 mV to +60 mV using a ramp protocol. […] All recording data were analyzed using Clampfit 9.0 (Molecular Devices, San Jose, CA, USA). […]
All presented experiments were performed at least three times for scientific verification. […] Induced-inward current data were analyzed with SigmaPlot 10.0 software (Systat Software, Inc., San Jose, CA, USA). […]

Q: How did the IC50 turn out when O=c1c(O)c(-c2ccc(O)cc2)oc2cc(O)cc(O)c12 [KAE, kaempferol] was run?
A: The IC50 was 34.9 ± 11.2 µM.

Q: And the “n (Hill coefficient)” value?
A: The value was 1.5 ± 0.4.
